Measured values reported in ChEMBL document CHEMBL5030563, “Structure-Based Design of Dual-Acting Compounds Targeting Adenosine A2A Receptor and Histone Deacetylase as Novel Tumor Immunotherapeutic Agents” (J Med Chem, 2021).

Columns and labels:
[1] = Cmax in ICR mouse at 20 mg/kg, po by LC-MS/MS analysis; assay type: ADME, organism-based; set-up: route oral, dose 20 mg/kg; settings: in vivo
[2] = tested on: CT26; test: Antiproliferative activity against mouse CT26 cells measured after 72 hrs by CCK8 assay; assay type: functional; settings: Mus musculus, CT26
[3] = Half life in ICR mouse at 20 mg/kg, po by LC-MS/MS analysis; assay type: ADME, organism-based; settings: in vivo
[4] = target: Adenosine receptor A2a (Homo sapiens, UniProt P29274); test: Displacement of [3H]SCH58261 from adenosine A2A receptor membrane (unknown origin) measured after 60 mins by scintillation counting analysis; assay type: cell membranes
Sequence of Adenosine receptor A2a (P29274 whole entry): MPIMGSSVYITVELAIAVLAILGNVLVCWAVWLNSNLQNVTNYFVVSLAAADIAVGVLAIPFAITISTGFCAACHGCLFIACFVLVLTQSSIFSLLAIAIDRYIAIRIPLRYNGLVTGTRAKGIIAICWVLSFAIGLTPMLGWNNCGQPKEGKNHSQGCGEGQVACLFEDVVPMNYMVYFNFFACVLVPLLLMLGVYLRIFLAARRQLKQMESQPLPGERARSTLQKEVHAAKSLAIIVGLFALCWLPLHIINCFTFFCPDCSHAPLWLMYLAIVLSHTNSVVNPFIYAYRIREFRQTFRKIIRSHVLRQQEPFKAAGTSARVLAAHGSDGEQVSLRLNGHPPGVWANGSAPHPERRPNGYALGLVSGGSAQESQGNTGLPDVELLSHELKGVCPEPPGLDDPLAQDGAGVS

[5] = AUC (0 to infinity) in ICR mouse at 20 mg/kg, po by LC-MS/MS analysis; assay type: ADME, organism-based; set-up: time infinity, route oral, dose 20 mg/kg; settings: in vivo
[6] = target: Histone deacetylase 1 (Homo sapiens, UniProt Q13547); test: Inhibition of HDAC1 (unknown origin) assessed as release of 7-amino-4-methylcoumarin incubated in room temperature for 15 min measured by Spectra max microtitre plate reader
Sequence of Histone deacetylase 1 (Q13547 whole entry): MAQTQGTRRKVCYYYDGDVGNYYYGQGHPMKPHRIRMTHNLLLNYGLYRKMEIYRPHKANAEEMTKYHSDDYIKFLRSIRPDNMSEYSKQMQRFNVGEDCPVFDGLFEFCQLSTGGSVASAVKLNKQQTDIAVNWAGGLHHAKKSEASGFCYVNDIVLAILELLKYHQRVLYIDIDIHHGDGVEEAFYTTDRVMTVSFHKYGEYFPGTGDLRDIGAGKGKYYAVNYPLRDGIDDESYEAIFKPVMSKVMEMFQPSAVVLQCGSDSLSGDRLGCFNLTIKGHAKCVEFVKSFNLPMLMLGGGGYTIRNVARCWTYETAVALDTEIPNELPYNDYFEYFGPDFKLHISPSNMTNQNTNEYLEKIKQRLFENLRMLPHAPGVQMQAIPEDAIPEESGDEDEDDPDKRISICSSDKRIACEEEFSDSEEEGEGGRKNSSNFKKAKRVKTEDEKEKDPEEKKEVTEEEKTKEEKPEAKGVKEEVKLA

[7] = AUC (0 to t) in ICR mouse at 20 mg/kg, po by LC-MS/MS analysis; assay type: ADME, organism-based; set-up: dose 20 mg/kg; settings: in vivo
[8] = Tmax in ICR mouse at 20 mg/kg, po by LC-MS/MS analysis; assay type: ADME, organism-based; settings: in vivo
[9] = MRT in ICR mouse at 20 mg/kg, po by LC-MS/MS analysis; assay type: ADME, organism-based; settings: in vivo
[10] = Elimination rate constant in ICR mouse at 20 mg/kg, po up to 24 hrs by LC-MS/MS analysis; assay type: ADME, organism-based; settings: in vivo
[11] = tested on: MC-38; test: Antiproliferative activity against mouse MC38 cells measured after 72 hrs by CCK8 assay; assay type: functional; settings: Mus musculus, MC-38

Cmax [1]: 598 ng/mL
GI50 [2]: 6900 nM
half-life [3]: 4.08 h
Ki [4]: 6.5 nM
AUC(0-inf) [5]: 602 ng·h/mL
IC50 [6]: 113 nM
AUC(0-t) [7]: 588 ng·h/mL
Tmax [8]: 0.25 h
MRT [9]: 2.44 h
k el at 24 h [10]: 5.67e-05 s⁻¹
SMILES: N#Cc1cccc(-c2nc3c4cnn(CCc5ccc(C(=O)Nc6ccccc6N)cc5)c4nc(N)n3n2)c1
GI50 [11]: 5400 nM
